Measured values: patent US20220040280A1, “INHIBITORS AND USES THEREOF” (UNIVERSITY OF CANBERRA, priority 2016, published 2022)
Entries after “also recorded” stand apart in the source; their conditions may differ. Residues, ends and D or L forms follow the SMILES beside them. *: point of attachment. Myristoyl = CCCCCCCCCCCCCC(=O)*

B1: IFNγ: interferon gamma used as stimulus (10 μg/mL) (protein, UniProt P01579 24-161, looked up)
Interferon gamma: QDPYVKEAENLKKYFNAGHSDVADNGTLFLGILKNWKEESDRKIMQSQIVSFYFKLFKNFKDDQSIQKSVETIKEDMNVKFFNSNKKKRDDFEKLTNYSVTDLNVQRKAIHELIQVMAELSPAAKTGKRKRSQMLFRG

Columns and labels:
[1] = target: T1, LSD1 phosphorylated at serine 111 (LSD1s111p) (Homo sapiens, UniProt O60341); assay: Confocal microscopy of LSD1s111p in MCF7 cells treated with peptide inhibitors; assay type: cell-based; settings: stimulated and non-stimulated MCF7 cells, relative to control, FIG. 4
T1 construct: endogenous in cells; host or cells: MCF7 (non-stimulated or PMA-stimulated) and MDA-MB-231 breast cancer cells
Protocol: (§1) Cells were probed with either rabbit antibodies to LSD1s111p (Merck ABE1462), EGFR (AB2430), MET (ab51067), PD-L1 (sc-50298), goat antibodies to PD-L1 (sc-19091), SC-14033), (sc-19096), mouse antibodies to Cytokeratin (Miltenyi 130-090-866), CSV (Abnova H00007431-M08), vimentin (SC-6260) followed by visualisation with secondary anti mouse Alexa-Fluor 568 (A10037), secondary anti rabbit Alexa-Fluor 488 (A21206) or secondary anti goat Alexa-Fluor 633 (A21082).
(§2) MDA-MB-231 or MCF7 cells were treated with one of L1, L2 or L3 and a control. Cells were then fixed with 3.7% formaldehyde and permeabilized with 2% Triton-X-100, then probed with a primary mouse antibody against LSD1 or a primary rabbit antibody against PD-L1, EGFR or MET, followed by visualization with a secondary goat antibody to mouse or rabbit immunoglobulins conjugated to Alexa-Fluor 488. Confocal laser scanning microscopy was used to measure the Fn/c (ratio of nuclear to cytoplasmic fluorescent intensity) ratio of LSD1 with Fiji-imageJ or the total nuclear fluorescence of PD-L1, EGFR or MET. Values are plotted with significant differences indicated using the Mann-Whitney T-test, with at least 20 cells counted per sample. Representative images for each treatment are shown.

MET = assay: Confocal microscopy of MET in MDA-MB-231 cells treated with peptide inhibitors; assay type: cell-based, human; settings: in comparison to control, FIG. 24
Protocol: as §2

MDA-MB-231 cells = settings: 100 μM, FIG. 21
Protocol: (§4) 5×10^4 MCF7 or MDA-MB-231 cells were seeded with 1 mL of complete DMEM in 12 well plates overnight. […] Samples were harvested by trypsinisation followed by washing with DPBS containing 2% HI-FBS. FACS staining were performed using anti-human CD44-APC, anti-human CD24-PE, Hoechst, and anti-human EpCAM antibody cocktails. Data was collected from a BD FACSLSR-II flow cytometer. Treestar FlowJo was used for data analysis.

EGFR = assay: Confocal microscopy of EGFR in MDA-MB-231 cells treated with peptide inhibitors; assay type: cell-based, human; settings: in comparison to control, FIG. 23
Protocol: as §2

PD-L1 [2] = assay: Confocal microscopy of PD-L1 in MCF7 cells treated with peptide inhibitors; assay type: cell-based, human; settings: for abrogation of nuclear PD-L1 expression: epithelial non-stimulated MCF7 cells, compared with stimulated cells; for Fn/c ratio (nuclear bias) of PD-L1: peptide treated MCF7 cells; for cytoplasmic/surface expression of PD-L1 (TCFI): stimulated MCF7 cells; for cytoplasmic/surface expression of PD-L1 (TCFI) / expression of nuclear PD-L1 (TNFI): FIG. 5; for expression of nuclear PD-L1 (TNFI): stimulated, mesenchymal MCF7 cells
Protocol: as §1, §2

LSD1 = target: T2, LSD1 (Homo sapiens, UniProt O60341); assay: LSD1 nuclear translocation in MDA-MB-231 cells, confocal microscopy; assay type: cell-based; settings: FIG. 19 and FIG. 31
T2 construct: endogenous in cells; host or cells: MCF7 (non-stimulated or PMA-stimulated) and MDA-MB-231 breast cancer cells
Protocol: as §2
Confocal laser scanning microscopy was performed on MDA-MB-231 cells treated with a LSD1 peptide inhibitor, L1, L2 or L3, or vehicle alone. Cells were fixed with 3.7% formaldehyde and permeabilized with 2% Triton-X-100, and then probed with a primary mouse antibody to LSD1, followed by the corresponding secondary antibody conjugated to Alexa-Fluor 488. Confocal laser scanning microscopy was used to determine the Fn/c ratio of LSD1 with image-J. Values are plotted with significant differences indicated. Data shown represent the mean±SE for at least 20 individual cells.

[3] = target: T1, LSD1 phosphorylated at serine 111 (LSD1s111p); assay: Confocal microscopy of LSD1s111p in MDA-MB-231 cells treated with peptide inhibitors; assay type: cell-based; settings: relative to control, FIG. 4
Protocol: as §1, §2

PD-L1 [4] = assay: Confocal microscopy of PD-L1 in MDA-MB-231 cells treated with peptide inhibitors; assay type: cell-based, human; settings: for cytoplasmic/surface expression of PD-L1 (TCFI) / expression of nuclear PD-L1 (TNFI) / PD-L1 nuclear expression: MDA-MB-231 cells; for cytoplasmic/surface expression of PD-L1 (TCFI) / expression of nuclear PD-L1 (TNFI): FIG. 6; for PD-L1 nuclear expression: in comparison to the control, FIG. 22 (50 μM and 100 μM); for Fn/c ratio (nuclear bias) of PD-L1: peptide treated MDA-MB-231 cells
Protocol: as §1, §2

[5] = test system: MDA-MB-231 breast cancer cells; assay: Flow cytometry of stimulated MDA-MB-231 cells (PD-L1, CD44, CD24); assay type: cell-based, human; settings: for Median Fluorescence Intensity (MFI) of PD-L1, change on stimulation: MDA-MB-231 cells
Protocol: MCF7 and MDA-MB-231 cells were obtained from the American Type Culture Collection (Manassas, Va.). Cells were cultured in DMEM (Invitrogen, Life Technologies, Carlsbad, Calif.) supplemented with 10% FBS, 2 mM L-glutamine, and 1% penicillin-streptomycin-neomycin. MCF7 cells were stimulated with 1.32 ng/ml phorbol 12-myristate 13-acetate (PMA) (Sigma-Aldrich, St Louis, Mo.) or 5 ng/ml recombinant TGF-β1 (R&D Systems, Minneapolis, Minn.) for 60 h. For the co-culture assay MDA-MB-231 cells were stimulated with Jurkat T-cells at defined ratios.
(§3) Isolated PBMCs and CTCs were stained with CD45−APC, pan-cytokeratin (CK)-FITC, EpCAM-Percp-Cy5.5 and PD-L1-BV421 antibodies. Co-cultured MDA-MB-231 cells were stained with CD44, CD24 and PD-L1. Flow cytometric analysis was performed on single cell suspensions for using the BD LSR II Flow Cytometer.

[6] = test system: MDA-MB-231 breast cancer cells; assay: as above; assay type: cell-based, human; settings: IFNγ 10 μg/mL, PMA 24 ng/mL, 24 or 48 hours
MCF7 cells = settings: PMA stimulated MCF7 cells, 50 μM and 100 μM tested, FIG. 20
Protocol: as §4

PD-L1 [7] = assay: FACS of PD-L1 in CD45-CK+ circulating tumor cells from patient liquid biopsies; assay type: cell-based, human; settings: CD45-CK+ CTCs
Protocol: as §3

[8] = stimulated MDA-MB-231, 24 hours
[9] = stimulated MDA-MB-231, 48 hours

Molecule | nuclear expression of LSD1s111p (TNFI) [1] | MET nuclear expression (TNFI) (MET) | cancer stem cell formation (MDA-MB-231 cells) | EGFR nuclear expression (TNFI) (EGFR) | abrogation of nuclear PD-L1 expression (PD-L1 [2]) | Fn/c ratio (nuclear bias) of PD-L1 (PD-L1 [2]) | cytoplasmic/surface expression of PD-L1 (TCFI) (PD-L1 [2]) | expression of nuclear PD-L1 (TNFI) (PD-L1 [2]) | nuclear translocation of LSD1 (Fn/c) (LSD1) | nuclear expression of LSD1s111p (TNFI) [3] | cytoplasmic/surface expression of PD-L1 (TCFI) (PD-L1 [4]) | expression of nuclear PD-L1 (TNFI) (PD-L1 [4]) | PD-L1 nuclear expression (PD-L1 [4]) | Fn/c ratio (nuclear bias) of PD-L1 (PD-L1 [4]) | Median Fluorescence Intensity (MFI) of PD-L1, change on stimulation [5] | CD44^hi CD24^lo (Frequency of parent, %) [5, 8] [%] | CD44^hi CD24^lo, PD-L1+ (Frequency of parent, %) [5, 8] [%] | Mean Fluorescence Intensity of Comp Pacific Blue-A PD-L1, CD44^hi CD24^lo, PD-L1+ subset [5, 8] | Mean Fluorescence Intensity of Comp Pacific Blue-A PD-L1, PD-L1+ subset [5, 8] | PD-L1+ (Frequency of parent, %) [5, 8] [%] | other results
CCCCCCCCCCCCCC(=O)N[C@@H](CCCNC(=N)N)C(=O)N[C@@H](Cc1c[nH]c2ccccc12)C(=O)N[C@@H](CCCNC(=N)N)C(=O)N[C@@H](CCCNC(=N)N)C(=O)N[C@H](C(=O)N[C@@H](C)C(=O)N[C@@H](CCCNC(=N)N)C(=O)N[C@@H](CCCNC(=N)N)C(=O)N[C@@H](CCCCN)C(=O)N[C@@H](CCCNC(=N)N)C(=O)N[C@@H](C)C(=O)N[C@@H](CCCCN)C(=O)N[C@H](C(=O)O)C(C)C)[C@@H](C)O [Peptide L3, Myristoyl-RWRRTARRKRAKV-OH] (Myristoyl-RWRRTARRKRAKV-OH) | significantly abrogated | significant abrogation | significant reduction | reduction | lessened | strongly nuclear | significantly inhibited | significantly abrogated | inhibited; also recorded: clearly abrogated | significantly abrogated | significantly inhibited | significantly abrogated | abrogated | strongly nuclear | – | – | – | – | – | – | –
CCCCCCCCCCCCCC(=O)O[C@@H]1[C@@H](C)[C@@]2(O)[C@@H](C=C(CO)C[C@]3(O)C(=O)C(C)=C[C@@H]23)[C@@H]2C(C)(C)[C@]12OC(C)=O [PMA, phorbol 12-myristate 13-acetate, reference compound] | – | – | – | – | – | – | – | – | – | – | – | – | – | – | decreased | 98.4 | 98.6 | 3145 | 3126 | 98.5 | CD44^hi CD24^lo (Frequency of parent, %) [5, 9]: 98.3%; CD44^hi CD24^lo, PD-L1+ (Frequency of parent, %) [5, 9]: 99.2%; Mean Fluorescence Intensity of Comp Pacific Blue-A PD-L1, CD44^hi CD24^lo, PD-L1+ subset [5, 9]: 4016; Mean Fluorescence Intensity of Comp Pacific Blue-A PD-L1, PD-L1+ subset [5, 9]: 3983; PD-L1+ (Frequency of parent, %) [5, 9]: 99.1%; frequency (%) of PD-L1+ cells, change on stimulation [6]: not altered
CCCCCCCCCCCCCC(=O)N[C@@H](CCCNC(=N)N)C(=O)N[C@@H](CCCNC(=N)N)C(=O)N[C@H](C(=O)N[C@@H](C)C(=O)N[C@@H](CCCNC(=N)N)C(=O)N[C@@H](CCCNC(=N)N)C(=O)N[C@@H](CCCCN)C(=O)N[C@@H](CCCNC(=N)N)C(=O)N[C@@H](C)C(=O)N[C@@H](CCCCN)C(=O)N[C@H](C(=O)O)C(C)C)[C@@H](C)O [Peptide L2, Myristoyl-RRTARRKRAKV-OH] (Myristoyl-RRTARRKRAKV-OH) | significantly abrogated | significant abrogation | significant reduction | reduction | lessened | strongly nuclear | significantly inhibited | significantly abrogated | inhibited; also recorded: clearly abrogated | significantly abrogated | significantly inhibited | significantly abrogated | abrogated | strongly nuclear | – | – | – | – | – | – | cancer stem cell formation (MCF7 cells): inhibited
CN(C)C(=O)c1cc2cnc(Nc3ccc(N4CCNCC4)cn3)nc2n1C1CCCC1 [Ribociclib] | – | – | – | – | – | – | – | – | – | – | – | – | – | – | – | – | – | – | – | – | PD-L1 nuclear (nPD-L1) expression (PD-L1 [7]; Patient A, FIG. 18A): greatest inhibition; PD-L1 nuclear expression (PD-L1 [7]; Patient B, FIG. 18B): inhibited; PD-L1 surface/cytoplasmic expression (PD-L1 [7]; Patient B, FIG. 18B): inhibited
B1 | – | – | – | – | – | – | – | – | – | – | – | – | – | – | increases | 77.7 | 99.7 | 6173 | 6015 | 99.7 | CD44^hi CD24^lo (Frequency of parent, %) [5, 9]: 98.9%; CD44^hi CD24^lo, PD-L1+ (Frequency of parent, %) [5, 9]: 99.7%; Mean Fluorescence Intensity of Comp Pacific Blue-A PD-L1, CD44^hi CD24^lo, PD-L1+ subset [5, 9]: 6173; Mean Fluorescence Intensity of Comp Pacific Blue-A PD-L1, PD-L1+ subset [5, 9]: 6133; PD-L1+ (Frequency of parent, %) [5, 9]: 99.7%; frequency (%) of PD-L1+ cells, change on stimulation [6]: not altered
